Laboratory results reported in patent US20190105367A1, “ANTIMICROBIAL 4-OXOQUINOLIZINES” (Emergent Product Development Gaithersburg Inc., priority 2011, published 2019).

Columns and labels:
Type in all cases: cell-based, Acinetobacter baumannii
A. baumannii A14 [1] = experiment: Preliminary MBC without and with sub-inhibitory polymyxin B (Example 4); settings: A. baumannii A14, without PB, 2nd experiment
Procedure, shortened: (§1)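 After plating, cultures are held at 37° C for 18-20 hours; the endpoint is then scored by comparing colony growth against the positive control, with MBC defined as the lowest concentration showing roughly 90% reduction.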

A. baumannii A390 = experiment: as above; settings: for MBC: 2nd experiment
Procedure, shortened: as §1

A. baumannii A473 [2] = experiment: as above; settings: for MBC: 2nd experiment
Procedure, shortened: as §1

A. baumannii NCTC 13301 [3] = experiment: as above; settings: A. baumannii NCTC 13301, preliminary MBC; for MBC: 2nd experiment
Procedure, shortened: as §1

A. baumannii A401 [4] = experiment: MIC without and with sub-inhibitory polymyxin B (Example 4); settings: A baumannii A 401; for MIC: 2nd experiment
A. baumannii A401 [5] = experiment: Preliminary MBC without and with sub-inhibitory polymyxin B (Example 4); settings: for MBC: 2nd experiment
A. baumannii A472 [6] = experiment: MIC without and with sub-inhibitory polymyxin B (Example 4); settings: A. baumannii A472; for MIC: 2nd experiment
A. baumannii A472 [7] = experiment: Preliminary MBC without and with sub-inhibitory polymyxin B (Example 4); settings: A. baumannii A472, preliminary MBC; for MBC: 2nd experiment
A. baumannii A473 [8] = experiment: MIC without and with sub-inhibitory polymyxin B (Example 4); settings: A. baumannii A473
A. baumannii A489 = experiment: as above; settings: A. baumannii A489
A. baumannii NCTC 13301 [9] = experiment: as above; settings: A. baumannii NCTC 13301, 1st experiment
A. baumannii NCTC 13301 [10] = experiment: as above; settings: A. baumannii NCTC 13301, 2nd experiment
A. baumannii A14 [11] = experiment: as above; settings: 1st experiment
[12] = +[…] polymyxin B, 1st experiment
[13] = without polymyxin B, 1st experiment

Polymyxin B [reference compound]
MBC (A. baumannii A14 [1]): 0.25 mg/L | MBC (A. baumannii A390; A. baumannii A390, +0.06 μg/ml PB): ≤0.125 mg/L | MBC (A. baumannii A390; A. baumannii A390, without PB): 0.25 mg/L | MBC without PB (A. baumannii A390; A. baumannii A390, without polymyxin B, 1st experiment): 0.25 mg/L | MBC (A. baumannii A473 [2]; A. baumannii A473, +0.06 μg/ml PB): 0.25 mg/L | MBC (A. baumannii A473 [2]; A. baumannii A473, without PB): 0.25 mg/L | MBC without PB (A. baumannii A473 [2]; A. baumannii A473, without polymyxin B, 1st experiment): 1 mg/L | MBC (A. baumannii NCTC 13301 [3]; +[…] PB): ≤0.125 mg/L | MBC +[…] PB (A. baumannii NCTC 13301 [3]; [12]): 0.5 mg/L | MBC (A. baumannii NCTC 13301 [3]; without PB): 0.25 mg/L | MBC without PB (A. baumannii NCTC 13301 [3]; [13]): 0.5 mg/L | MIC (A. baumannii A401 [4]; +0.06 μg/ml PB): 0.25 mg/L | MIC +0.06 μg/ml PB (A. baumannii A401 [4]; +0.06 μg/ml polymyxin B, 1st experiment): 0.5 mg/L | MIC without PB/MIC + PB (A. baumannii A401 [4]; ratio, PB 0.06 μg/ml, 1st experiment): 2 | MIC (A. baumannii A401 [4]; without PB): 0.5 mg/L | MIC without PB (A. baumannii A401 [4]; [13]): 1 mg/L | MBC (A. baumannii A401 [5]; A baumannii A 401, +0.06 μg/ml PB): 0.25 mg/L | MBC +0.06 μg/ml PB (A. baumannii A401 [5]; A baumannii A 401, +0.06 μg/ml polymyxin B, 1st experiment): 0.5 mg/L | MBC (A. baumannii A401 [5]; A baumannii A 401, without PB): 0.5 mg/L | MBC without PB (A. baumannii A401 [5]; A baumannii A 401, without polymyxin B, 1st experiment): 1 mg/L | MIC (A. baumannii A472 [6]; +[…] PB): 0.25 mg/L | MIC +[…] PB (A. baumannii A472 [6]; [12]): ≤0.125 mg/L | MIC without PB/MIC + PB (A. baumannii A472 [6]; ratio, PB […], 1st experiment): ≥4 | MIC (A. baumannii A472 [6]; without PB): 0.5 mg/L | MIC without PB (A. baumannii A472 [6]; [13]): 0.5 mg/L | MBC (A. baumannii A472 [7]; +[…] PB): 0.25 mg/L | MBC +[…] PB (A. baumannii A472 [7]; [12]): ≤0.125 mg/L | MBC (A. baumannii A472 [7]; without PB): 0.5 mg/L | MBC without PB (A. baumannii A472 [7]; [13]): 0.5 mg/L | MIC (A. baumannii A473 [8]; +0.06 μg/ml PB, 2nd experiment): 0.25 mg/L | MIC without PB/MIC + PB (A. baumannii A473 [8]; +0.06 μg/ml PB, 2nd experiment): 1 | MIC (A. baumannii A473 [8]; without PB, 2nd experiment): 0.25 mg/L | MIC read with alamar blue (A. baumannii A473 [8]; without PB, value in parentheses, 2nd experiment): 2 mg/L | MIC without PB (A. baumannii A473 [8]; [13]): 1 mg/L | MIC (A. baumannii A489; +[…] PB, 2nd experiment): 0.25 mg/L | MIC without PB/MIC + PB (A. baumannii A489; +[…] PB, 2nd experiment): 2 | MIC +[…] PB (A. baumannii A489; [12]): 1 mg/L | MIC without PB/MIC + PB (A. baumannii A489; ratio, PB […], 1st experiment): 2 | MIC (A. baumannii A489; without PB, 2nd experiment): 0.5 mg/L | MIC without PB (A. baumannii A489; [13]): 2 mg/L | MIC +[…] PB (A. baumannii NCTC 13301 [9]; +[…] polymyxin B): 1 mg/L | MIC without PB/MIC + PB (A. baumannii NCTC 13301 [9]; ratio, PB […]): 0.5 | MIC without PB (A. baumannii NCTC 13301 [9]; without polymyxin B): 0.5 mg/L | MIC (A. baumannii NCTC 13301 [10]; +[…] PB): ≤ 0.125 mg/L | MIC without PB/MIC + PB (A. baumannii NCTC 13301 [10]; +[…] PB): ≥2 | MIC (A. baumannii NCTC 13301 [10]; +[…] PB, value in parentheses marked *, mark not explained): 0.25 mg/L | MIC (A. baumannii NCTC 13301 [10]; without PB): 0.25 mg/L | MIC +0.06 μg/ml PB (A. baumannii A14 [11]; +0.06 μg/ml polymyxin B): 0.5 mg/L | MIC without PB/MIC + PB (A. baumannii A14 [11]; ratio, PB 0.06 μg/ml): 1 | MIC without PB (A. baumannii A14 [11]; without polymyxin B): 0.5 mg/L
